From patent publication US20100137398A1, “USE OF HDAC INHIBITORS FOR THE TREATMENT OF GASTROINTESTINAL CANCERS” (NOVARTIS AG, priority 2007, published 2010)

How the values were obtained:
[1] = system: Colo206F colon cancer cell line; assay: Monolayer growth inhibition assay (MTT/MTS); assay type: cell-based
Source text: (§1) The MTT is a colorimetric assay to determine the cell proliferation rate. The yellow tetrazolium MTT (3-(4, 5-dimethylthiazolyl-2)-2, 5-diphenyltetrazolium bromide) is reduced, by metabolically active cells, in part by the action of dehydrogenase enzymes, to generate reducing equivalents such as NADH and NADPH. The resulting intracellular purple formazan can be solubilized and quantified by spectrophotometric means. The signals produced is directly proportional to the cell numbers. Describing the MTT assay in detail, experiments were done using six-point or 9 point drug titrations in multi-well tissue culture dishes, with outer rows left empty. Cells were suspended in complete media at densities of between 10^3 and 10^4 cell/ml, respectively, and added per well. The appropriate medium (200 μl) was then added. Twenty-four hours later, 10 μl of MTS solution, were added to one plates to determine the activity at the time of compound addition (T0). This plate was incubated at 37° for 4 hours and the optical density was measured on a Molecular Devices Thermomax at 490 nm using the Softmax program. The T0 plate served as a reference for initial activity at the beginning of the experiment.
(§2) Compound addition began 24 hours after seeding, the same time as the T0 determination. Serial dilutions at 4-fold 2-fold, 1-fold, 0.5-fold, 0.25-fold and 0.125-fold of previously determined IC50 values of each compound were made in a 96-deep well plate with the highest concentrations on the edge of the plate. Each of the six dilutions were added in triplicate and complete medium was added to the empty outer rows, without cells. The compounds were added to the plates singly or in combination with Compound III (LBH589). The plates were incubated at 37° C. for 72 hours from seeding. The MTS solution was added (as for the T0 plate) and read four hours later. In order to analyze the data, the average value of media alone (background) was subtracted from each experimental well and the triplicate values were averaged for each compound dilution. The following formulas were used to calculate percent growth.
(§3) If X>T0, % Growth=100×(X−T0)/(GC−T0))
(§4) If X<T0, % Growth=100×(X−T0)/T0)
(§5) T0=average value of T0 minus background
(§6) GC=average value of untreated cells (in triplicate) minus background X=average value, of compound treated cells (in triplicate) minus background
(§7) IC50 the concentration of LBH589 required to inhibit cell growth by 50% and LD50s the concentration required to reduce cell number (kill cells) to 50% the original innoculum were determined. The “% Growth” was plotted against compound concentration and used to calculate IC50s and LD50s, employing the user-defined spline function in Microsoft Excel.
(§8) Colon cancer cell lines were treated with DMSO vehicle control or varying concentrations of LBH589 for 3 days. Cell proliferation was measured on the day of cell plating and on the third day post-treatment. IC50 and LD50 values were calculated as described above.

[2] = system: Colo320DM colon cancer cell line; assay: Monolayer growth inhibition assay (MTT/MTS); assay type: cell-based
Source text: as §1, §2, §3, §4, §5, §6, §7, §8

[3] = system: Colo678 colon cancer cell line; assay: Monolayer growth inhibition assay (MTT/MTS); assay type: cell-based
Source text: as §1, §2, §3, §4, §5, §6, §7, §8

[4] = system: Colo741 colon cancer cell line; assay: Monolayer growth inhibition assay (MTT/MTS); assay type: cell-based
Source text: as §1, §2, §3, §4, §5, §6, §7, §8

[5] = system: HCT8 colon cancer cell line; assay: Monolayer growth inhibition assay (MTT/MTS); assay type: cell-based
Source text: as §1, §2, §3, §4, §5, §6, §7, §8

[6] = system: HT55 colon cancer cell line; assay: Monolayer growth inhibition assay (MTT/MTS); assay type: cell-based
Source text: as §1, §2, §3, §4, §5, §6, §7, §8

[7] = system: LOVO colon cancer cell line; assay: Monolayer growth inhibition assay (MTT/MTS); assay type: cell-based
Source text: as §1, §2, §3, §4, §5, §6, §7, §8

[8] = system: MDST8 colon cancer cell line; assay: Monolayer growth inhibition assay (MTT/MTS); assay type: cell-based
Source text: as §1, §2, §3, §4, §5, §6, §7, §8

[9] = system: HCT116 colon cancer cells; assay: HCT116 xenograft model, tumor growth; assay type: in vivo, Female athymic nude mice
Experimental: Female athymic nude mice were implanted subcutaneously with HCT116 colon cancer cells. […] Mice were treated with LBH589 at 5, 10 or 20 mg/kg intravenously (iv) 5 times a week for 3 weeks or 75 mg/kg of 5-Fluorouracil intravenously once a week for 3 weeks. Animals were calipered weekly. Compound activity was determined as the percent change in tumor volume of treated animals over control animals (% T/C). The percentage of regression was determined as the percent change in the final tumor volume at the end of the study over the starting tumor volume. […] The results are described in FIG. 1.

[10] = system: Colo205 colon cancer xenograft; assay: Colo205 colon cancer xenograft model, tumor growth inhibition and delay; assay type: in vivo, Female athymic nude mice; settings: LBH589 30 mg/kg iv Mon/Wed/Fri for 3 weeks, 5-FU 75 mg/kg ip once a week for 3 weeks, or both
Experimental: Female athymic nude mice-were implanted subcutaneously with Col6205 colon cancer cells. When tumors reached a medan tumor volume of 220 mm3, mice were randomized into groups of 10 mice. Mice were treated with LBH589 at 30 mg/kg intravenously on Monday, Wednesday, Friday per week for 3 weeks, 75 mg/kg of 5-Fluorouracil intraperitoneally once a week for 3 weeks, or combination of the two agents. For tumor growth inhibition (FIG. 2A), compound activity was measured as the percent change in tumor volume of treated animals over control animals (% T/C). The percentage of regression was determined as the percent change in the final tumor volume at the end of the study over the starting tumor volume. For tumor growth delay (FIG. 2B), compound activity was measured as the change in median calculated time to the study end point (TTE), which was predefined as tumor volume of 1000 mm^3.

[11] = system: 19 pancreatic cancer cell lines; assay: Cell proliferation assays, panel of 19 pancreatic cancer cell lines, 6 days; assay type: cell-based; settings: 6 days treatment
Experimental: A panel of 19 pancreatic cancer cell lines was independently assessed in cell proliferation assays. Cells were treated with DMSO vehicle control or varying concentrations of LBH589 for 6 days.

[12] = system: 12 pancreatic cancer cell lines; assay: Cell proliferation assay, panel summary; assay type: cell-based; settings: 3 days treatment
Source text: as §1, with “Twenty-four hours later, 10 μl of MTS solution, were added to one plates to determine the activity at the time of compound addition (T0).” left out, “The T0 plate served as a reference for initial activity at the beginning of the experiment.” left out
Compound addition began 24 hours after seeding, the same time as the T0 determination. […] The MTS solution was added (as for the T0 plate) and read four hours later. […]
Pancreatic cancer cell lines were treated with DMSO vehicle control or varying concentrations of LBH589 for 3 days. Cell proliferation was measured on the day of cell plating and on the third day post-treatment. IC50 and LD50 values were calculated as described above.

[13] = 3 days, concentration reducing cell number to 50% of original inoculum

Cc1[nH]c2ccccc2c1CCNCc1ccc(/C=C/C(=O)NO)cc1 [LBH589, N-hydroxy-3-[4-[[[2-(2-methyl-1H-indol-3-yl)ethyl]-amino]methyl]phenyl]-2E-2-propenamide]
LD50 [1, 13]: >10 µM
IC50 ([1]; COLO 206F, 72 h, 3 days treatment): 10.1 nM
LD50 [2, 13]: 1103.37 nM
IC50 ([2]; Homo sapiens, COLO 320DM, 72 h, 3 days treatment): 29.5 nM
LD50 ([3]; Colo678, 3 days, concentration reducing cell number to 50% of original inoculum): 45.52 nM
IC50 ([3]; Homo sapiens, COLO-678, 72 h, Colo678, 3 days treatment): 5.6 nM
LD50 ([4]; Colo741, 3 days, concentration reducing cell number to 50% of original inoculum): 33.73 nM
IC50 ([4]; Homo sapiens, COLO-741, 72 h, Colo741, 3 days treatment): 9.22 nM
LD50 ([5]; HCT8, 3 days, concentration reducing cell number to 50% of original inoculum): 77.70 nM
IC50 ([5]; Homo sapiens, HCT-8, 72 h, HCT8, 3 days treatment): 4.94 nM
LD50 ([6]; HT55, 3 days, concentration reducing cell number to 50% of original inoculum): 334.52 nM
IC50 ([6]; Homo sapiens, 72 h, HT55, 3 days treatment): 8.21 nM
LD50 [7, 13]: 52.01 nM
IC50 ([7]; Homo sapiens, 72 h, 3 days treatment): 4.37 nM
IC50 ([8]; 72 h, MDST8, 3 days treatment): 4.87 nM
LD50 ([8]; MDST8, 3 days, concentration reducing cell number to 50% of original inoculum): 48.44 nM
% T/C (percent change in tumor volume of treated over control animals) ([9]; 5 mg/kg intravenously 5 times a week for 3 weeks): 17%
% T/C (percent change in tumor volume of treated over control animals) ([9]; 10 mg/kg intravenously 5 times a week for 3 weeks): 6%
tumor regression (percent change in final tumor volume over starting tumor volume) ([9]; 20 mg/kg intravenously 5 times a week for 3 weeks): 8%
tumor growth inhibition (TGI) and tumor growth delay (TGD) [10]: led to tumor growth inhibition (TGI) and tumor growth delay (TGD)
Median TTE (time to study end point, tumor volume of 1000 mm^3) ([10]; vehicle 39.5 days): 32.9 days
LD50 ([11]; 18 of the 19 pancreatic cancer cell lines): < 1 µM
IC50 values ([11]; all 19 pancreatic cancer cell lines): low nanomolar
IC50 values ([12]; all 12 pancreatic cancer cell lines): low nanomolar
LD50 ([12]; majority of the pancreatic cancer cell lines (n=10)): < 1 µM
